The target of one data set is hERG (Homo sapiens, UniProt Q12809). Description: hERG Binding assay. On the technique in general: The hERG channel carries a current that helps repolarise heart muscle cells.
A short description of another data set: PBS solubility. The data set is classed as physicochemical. The following applies: aqueous buffer.
The nature of another data set: Chrom logD. In kind it is physicochemical.
The target in a further data set is SERT (Homo sapiens, UniProt P31645). Description: SERT Cellular Functional assay. The data set is classed as cell-based.
A short description of a further data set: Microsome half-life RLM. The following applies: rat, liver microsomes. The data set is classed as in vitro ADME.

Converted amounts (≈) assume the structure as drawn.

Chain of SERT (P31645 whole entry, species assumed): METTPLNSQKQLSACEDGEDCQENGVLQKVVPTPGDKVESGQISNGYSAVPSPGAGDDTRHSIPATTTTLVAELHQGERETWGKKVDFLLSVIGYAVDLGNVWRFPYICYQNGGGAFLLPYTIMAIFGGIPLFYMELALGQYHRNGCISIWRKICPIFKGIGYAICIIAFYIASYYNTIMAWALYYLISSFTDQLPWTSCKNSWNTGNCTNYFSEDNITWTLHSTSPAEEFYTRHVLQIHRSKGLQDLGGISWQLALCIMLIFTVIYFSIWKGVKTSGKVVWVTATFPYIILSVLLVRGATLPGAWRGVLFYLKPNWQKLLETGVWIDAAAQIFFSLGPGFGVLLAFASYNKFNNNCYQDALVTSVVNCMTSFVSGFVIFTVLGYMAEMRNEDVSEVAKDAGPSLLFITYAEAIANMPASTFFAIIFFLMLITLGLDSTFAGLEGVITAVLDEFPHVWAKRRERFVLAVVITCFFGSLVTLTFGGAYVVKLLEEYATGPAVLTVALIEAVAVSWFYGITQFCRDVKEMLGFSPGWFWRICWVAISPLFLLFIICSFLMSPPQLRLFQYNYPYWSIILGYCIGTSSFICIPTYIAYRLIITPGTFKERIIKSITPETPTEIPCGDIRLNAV
Chain of hERG (Q12809 whole entry): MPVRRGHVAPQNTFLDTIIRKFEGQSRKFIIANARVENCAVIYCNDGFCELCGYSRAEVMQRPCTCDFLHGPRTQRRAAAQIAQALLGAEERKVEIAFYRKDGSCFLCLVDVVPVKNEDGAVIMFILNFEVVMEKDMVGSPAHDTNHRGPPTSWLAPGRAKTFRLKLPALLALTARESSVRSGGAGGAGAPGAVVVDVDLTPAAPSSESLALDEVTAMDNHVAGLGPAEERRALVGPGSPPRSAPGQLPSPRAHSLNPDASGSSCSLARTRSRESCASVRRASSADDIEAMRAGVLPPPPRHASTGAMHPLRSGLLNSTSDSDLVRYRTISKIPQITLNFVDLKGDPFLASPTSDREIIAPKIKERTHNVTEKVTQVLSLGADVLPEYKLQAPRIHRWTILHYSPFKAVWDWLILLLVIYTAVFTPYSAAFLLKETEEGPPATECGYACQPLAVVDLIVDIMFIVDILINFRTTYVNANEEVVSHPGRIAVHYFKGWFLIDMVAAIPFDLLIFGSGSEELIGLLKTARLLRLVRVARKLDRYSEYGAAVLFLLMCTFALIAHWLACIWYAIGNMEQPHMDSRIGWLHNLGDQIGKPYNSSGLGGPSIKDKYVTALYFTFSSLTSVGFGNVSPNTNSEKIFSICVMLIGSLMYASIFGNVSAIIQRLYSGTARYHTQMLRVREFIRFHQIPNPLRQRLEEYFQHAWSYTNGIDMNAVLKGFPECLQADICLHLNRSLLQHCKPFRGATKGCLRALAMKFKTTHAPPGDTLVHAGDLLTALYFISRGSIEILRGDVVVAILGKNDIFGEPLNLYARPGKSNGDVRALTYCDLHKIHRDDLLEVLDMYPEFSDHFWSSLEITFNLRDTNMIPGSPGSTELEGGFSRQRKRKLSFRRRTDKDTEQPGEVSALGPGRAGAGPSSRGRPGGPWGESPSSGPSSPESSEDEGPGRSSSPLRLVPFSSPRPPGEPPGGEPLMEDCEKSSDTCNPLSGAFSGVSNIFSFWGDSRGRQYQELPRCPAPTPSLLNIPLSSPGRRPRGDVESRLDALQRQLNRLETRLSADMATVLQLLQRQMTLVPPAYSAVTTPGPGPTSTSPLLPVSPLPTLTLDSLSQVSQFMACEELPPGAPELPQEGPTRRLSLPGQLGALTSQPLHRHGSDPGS

As usually defined, the IC50 is the point on the concentration scale where inhibition reaches its midpoint. Low readings indicate higher potency, high ones lower potency. By solubility is commonly meant how much of the substance goes into solution per volume. A low value points to little dissolved substance. A word on the chromatographic logD: it is a lipophilicity value derived from retention on a column. The low end stands for lower lipophilicity, the high end for higher lipophilicity. One may read the half-life as the time in which the quantity being followed falls by half. Low readings indicate fast loss, high ones slow loss. As to `CC[C@H]1CC2C[C@H]3c4[nH]c5ccc(OC(C)OC)cc5c4CC[N@@](C2)C13` (stereo partly drawn) [Compound 3, (6R,7S,9S,11S)-7-ethyl-2-(1-methoxyethoxy)-6,6a,7,8,9,10,12,13-octahydro-5H-6,9-methanopyrido[1′,2′:1,2]azepino[4,5-b]indole], the IC50 is over 10 µM on hERG and 11.9 µM against SERT. Moreover, the concentration in solution in the data set “PBS solubility” (solubility) came to 245 µM (≈ 86.9 µg/mL). This compound yielded a chromatographic logD in “Chrom logD” of 4.9. In addition, the half-life in “Microsome half-life RLM” (+NADPH) is 4 min; in the data set “Microsome half-life RLM” (−NADPH) it was over 200 min.

The values are drawn from patent publication US20260217748A1, “IBOGAINE AND N[…] AND METHODS OF USE” (Atai Therapeutics, Inc., priority 2022, published 2026).
